Columns and labels:
AKR1C3 [1] = molecular target: T1, AKR1C3 (Homo sapiens, UniProt P42330); assay: AKR1C3 enzyme inhibition assay (coumberone to coumberol fluorescence); type: biochemical; design: GST (cleaved yes); made in house; host or cells: E. coli; settings: mean values; 10 μM NADPH, 0.3 μM coumberone, 3 h at room temperature
T1 sequence (P42330 1-323): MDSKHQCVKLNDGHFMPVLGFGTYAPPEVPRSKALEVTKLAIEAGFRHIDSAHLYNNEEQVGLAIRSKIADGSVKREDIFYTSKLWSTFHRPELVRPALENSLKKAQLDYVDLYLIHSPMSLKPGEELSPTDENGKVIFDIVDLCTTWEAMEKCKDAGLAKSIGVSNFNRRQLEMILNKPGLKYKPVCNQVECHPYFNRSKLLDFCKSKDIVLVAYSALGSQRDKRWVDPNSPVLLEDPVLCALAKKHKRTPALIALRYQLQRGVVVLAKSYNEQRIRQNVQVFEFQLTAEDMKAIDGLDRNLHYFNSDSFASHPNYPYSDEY
Method: The AKR1C3-inhibitory action of the substances of this invention was measured in the AKR1C3 assay described in the paragraphs which follow.
Essentially, the enzyme activity is measured by quantifying the coumberol formed from coumberone (Halim, M., Yee, D., J., and Sames, D., J. A., M. (2008). Chem Soc 130, 14123-14128 and Yee, D., J., Balsanek, V., Bauman, D., R., Penning, T., M., and Sames, D. (2006). Proc Natl Acad Sci USA, 103, 13304-13309). In this assay, the increase in the highly fluorescent coumberol can be determined by NADPH (nicotinamide adenine dinucleotide phosphate)-dependent reduction of the nonfluorescent coumberone by AKR1C3.
The enzyme used was recombinant human AKR1C3 (aldo-keto reductase family 1 member C3) (GenBank Accession No. NM_003739). This was expressed as the GST (glutathione S-transferase) fusion protein in E. coli and purified by means of glutathione-Sepharose affinity chromatography. The GST was removed by thrombin digestion with subsequent size exclusion chromatography (Dufort, I., Rheault, P., Huang, X., F., Soucy, P., and Luu-The, V. (1999). Endocrinology,140, 568-574).
For the assay, 40-50 nl of a 100-fold concentrated solution of the test substance in DMSO were pipetted into a black low-volume 384-well microtitre plate (Greiner Bio-One, Frickenhausen, Germany), 2-2.5 μl of a solution of AKR1C3 in assay buffer [50 mM potassium phosphate buffer pH 7, 1 mM DTT, 0.0022% (w/v) Pluronic F-127, 0.01% BSA (w/v) and protease inhibitor cocktail (complete, EDTA-free Protease Inhibitor Cocktail from Roche)] were added and the mixture was incubated for 20 min, in order to enable preliminary binding of the substances to the enzyme prior to the enzyme reaction. Then the enzyme reaction was started by adding 2-2.5 μl of a solution of NADPH and coumberone in assay buffer (final assay concentration was 10 μM NADPH and 0.3 μM coumberone) and the resulting mixture was incubated at room temperature for 3 h. Typical concentrations were depending on the linear range of the enzyme reaction during the reaction time about 1 nM. The reaction was stopped by adding 2 μl of a stop solution consisting of the AKR1C3 inhibitor EM-1404 to a final concentration of 1 μM. Subsequently, the fluorescence of coumberol was measured at 520 nm (excitation at 380 nm) with a suitable measuring instrument (Pherastar, BMG). […] The data were normalized (enzyme+coumberon substrate in assay buffer=0% inhibition; coumberone substrate only in assay buffer=100% inhibition). Substances were usually tested at 11 different concentrations on the same microtiter plate in a range between 96.8 pM to 20 μM (20 μM, 5.9 μM, 1.7 μM, 0.5 μM, 0.15 μM, 44 nM, 12.9 nM, 3.8 nM, 1.1 nM, 0.3 nM and 96.8 pM). The dilutions were carried out on a 100 fold concentrated solution by serial dilution in duplicates. From the obtained data IC50 values were calculated by a 4-parameter fit.

AKR1C3 [2] = molecular target: T1, AKR1C3; assay: AKR1C3 inhibition in a cell-based system (HEK293 cells transfected with AKR1C3 expression plasmid, coumberon substrate); design: expressed in transfected cells; host or cells: HEK293 cells (ATCC); settings: mean values; HEK293 cells transfected with AKR1C3, coumberon 6×10^−6M, 3 h; read-out: Cellular AKR1C3 inhibition IC50
Method: The inhibition of AKR1C3 by the substances described in this invention was measured in a cell-based assay using coumberon as the substrate for AKR1C3 (Halim, M., Yee, D., J., and Sames, D., J. (2008). Am Chem Soc, 130, 14123-14128 and Yee, D., J., Balsanek, V., Bauman, D., R., Penning, T., M., and Sames, D. (2006), Proc Natl Acad Sci USA 103, 13304-13309) (cf. Example 48).
The cell system used was HEK293 cells (ATCC, USA) (DMEM/F12, 10% FCS, 2 mM L-Glutamine, PSG). The cells were transfected with an AKR1C3 expression plasmid (pCMV6-AC-AKR1C3, GenBank Accession No. NM 003739.4), harvested after 24 hours and subsequently frozen. For assays, the frozen cells were thawed in assay medium (DMEM/F12 w/o phenolred, 0.005% Tween, 10% FCS, 2 mM L-Glutamine, PSG). Cells were seeded at 2500 cells/well into 384-well low volume or 1536-well plates (Greiner Bio-One, Frickenhausen, Germany) that contained 40-50 nl of a 100 fold concentrated compound solution in DMSO. After incubation at room temperature for 15 minutes, coumberon in PBS was added to a final concentration of 6×10^−6M. Following a 3 h incubation at room temperature, the reaction was stopped by lysing the cells with 0.4% Triton X-100. Coumberol fluorescence intensity was measured at 520 nm (excitation 380 nm) with a suitable measuring instrument (Pherastar, BMG). […] The data were normalized (transfected cells+coumberon=0% inhibition; no cells+coumberone=100% inhibition). Substances were usually tested at 11 different concentrations on the same microtiter plate in a range between 96.8 pM to 20 μM (20 μM, 5.9 μM, 1.7 μM, 0.5 μM, 0.15 μM, 44 nM, 12.9 nM, 3.8 nM, 1.1 nM, 0.3 nM and 96.8 pM). The dilutions were carried out on a 100 fold concentrated solution by serial dilution in duplicates. From the obtained data IC50 values were calculated by a 4-parameter fit.

IC50 (AKR1C3 [1]) | IC50 (AKR1C3 [2]) | SMILES
313 nM | 8340 nM | C[C@]12CC[C@@H]3c4ccc(NC(=O)CCC(=O)O)cc4CC[C@H]3[C@@H]1CC=C2c1cncnc1 [Example 25, 4-oxo-4-{[17-(pyrimidin-5-yl)estra-1(10),2,4,16-tetraen-3-yl]amino}butanoic acid]
4.9 nM | 860 nM | CN(c1ccc2c(c1)CC[C@@H]1[C@@H]2CC[C@]2(C)C(c3cncc(F)c3)=CC[C@@H]12)S(=O)(=O)CCC(=O)O [Example 38, 3-{[17-(5-fluoropyridin-3-yl)estra-1(10),2,4,16-tetraen-3-yl](methyl)sulfamoyl}propanoic acid]
14.3 nM | 490 nM | C[C@]12CC[C@@H]3c4ccc(S(=O)(=O)CCCC(=O)O)cc4CC[C@H]3[C@@H]1CC=C2c1cncc(C(F)(F)F)c1 [Example 14, 4-({17-[5-(trifluoromethyl)pyridin-3-yl]estra-1(10),2,4,16-tetraen-3-yl}sulfonyl)butanoic acid]
2.2 nM | 30 nM | C[C@]12CC[C@@H]3c4ccc(S(C)(=N)=O)cc4CC[C@H]3[C@@H]1CC=C2c1cncc(F)c1 (stereo partly shown) [Example 46, 17-(5-fluoropyridin-3-yl)-3-(S-methylsulfonimidoyl)estra-1(10),2,4,16-tetraene]
3.2 nM | 5000 nM | CC(=O)NS(=O)(=O)CCC(=O)Nc1ccc2c(c1)CC[C@@H]1[C@@H]2CC[C@]2(C)C(c3cncc(F)c3)=CC[C@@H]12 [Example 29, 3-(acetylsulfamoyl)-N-[17-(5-fluoropyridin-3-yl)estra-1(10),2,4,16-tetraen-3-yl]propanamide]
0.5 nM | 800 nM | Cc1cc(C2=CC[C@H]3[C@@H]4CCc5cc(S(=O)(=O)N(C)CCC(=O)O)ccc5[C@H]4CC[C@]23C)cnn1 [Example 07, N-methyl-N-{[17-(6-methylpyridazin-4-yl)estra-1(10),2,4,16-tetraen-3-yl]sulfonyl}-beta-alanine]
91.7 nM | 2710 nM | CN(CCC(=O)O)S(=O)(=O)c1ccc2c(c1)CC[C@@H]1[C@@H]2CC[C@]2(C)C(c3cncnc3)=CC[C@@H]12 [Example 05, N-methyl-N-{[17-(pyrimidin-5-yl)estra-1(10),2,4,16-tetraen-3-yl]sulfonyl}-beta-alanine]
5 nM | 110 nM | C[C@]12CC[C@@H]3c4ccc(NC(=O)CCCO)cc4CC[C@H]3[C@@H]1CC=C2c1cncc(F)c1 [Example 27, N-[17-(5-fluoropyridin-3-yl)estra-1(10),2,4,16-tetraen-3-yl]-4-hydroxybutanamide]
2.9 nM | 490 nM | C[C@]12CC[C@@H]3c4ccc(S(=O)(=O)CCCC(=O)O)cc4CC[C@H]3[C@@H]1CC=C2c1cncc(F)c1 [Example 10, 4-{[17-(5-fluoropyridin-3-yl)estra-1(10),2,4,16-tetraen-3-yl]sulfonyl}butanoic acid]
4.1 nM | 80 nM | C[C@]12CC[C@@H]3c4ccc(S(C)(=O)=O)cc4CC[C@H]3[C@@H]1CC=C2c1cncc(F)c1 [Example 08, 17-(5-fluoropyridin-3-yl)-3-(methylsulfonyl)estra-1(10),2,4,16-tetraene]
3.5 nM | 380 nM | CN(CCC(=O)O)S(=O)(=O)c1ccc2c(c1)CC[C@@H]1[C@@H]2CC[C@]2(C)C(c3cncc(F)c3)=CC[C@@H]12 [Example 02, N-{[17-(5-fluoropyridin-3-yl)estra-1(10),2,4,16-tetraen-3-yl]sulfonyl}-N-methyl-beta-alanine]
3.8 nM | 780 nM | C[C@]12CC[C@@H]3c4ccc(NC(=O)CCC(=O)O)cc4CC[C@H]3[C@@H]1CC=C2c1cncc(F)c1 [Example 23, 4-{[17-(5-fluoropyridin-3-yl)estra-1(10),2,4,16-tetraen-3-yl]amino}-4-oxobutanoic acid]
1.6 nM | 170 nM | Cc1cncc(C2=CC[C@H]3[C@@H]4CCc5cc(S(=O)(=O)CCCC(=O)O)ccc5[C@H]4CC[C@]23C)c1 [Example 17, 4-{[17-(5-methylpyridin-3-yl)estra-1,3,5(10),16-tetraen-3-yl]sulfonyl}butanoic acid]
8.3 nM | 8090 nM | C[C@]12CC[C@@H]3c4ccc(NC(=O)NCCC(=O)O)cc4CC[C@H]3[C@@H]1CC=C2c1cncc(F)c1 [Example 42, N-{[17-(5-fluoropyridin-3-yl)estra-1(10),2,4,16-tetraen-3-yl]carbamoyl}-beta-alanine]
9.7 nM | 540 nM | COc1cncc(C2=CC[C@H]3[C@@H]4CCc5cc(S(=O)(=O)CCCC(=O)O)ccc5[C@H]4CC[C@]23C)c1 [Example 16, 4-{[17-(5-methoxypyridin-3-yl)estra-1,3,5(10),16-tetraen-3-yl]sulfonyl}butanoic acid]
3.2 nM | 30 nM | C[C@]12CC[C@@H]3c4ccc(S(=O)(=O)CCCC(N)=O)cc4CC[C@H]3[C@@H]1CC=C2c1cncc(F)c1 [Example 20, 4-{[17-(5-fluoropyridin-3-yl)estra-1(10),2,4,16-tetraen-3-yl]sulfonyl}butanamide]
8.6 nM | 150 nM | C[C@]12CC[C@@H]3c4ccc(NC(=O)CCC(N)=O)cc4CC[C@H]3[C@@H]1CC=C2c1cncc(F)c1 [Example 26, N-[17-(5-fluoropyridin-3-yl)estra-1(10),2,4,16-tetraen-3-yl]butanediamide]
